From US10633375B2, “Oxopicolinamide derivative, preparation method therefor and pharmaceutical use thereof” (Jiangsu Hengrui Medicine Co., Ltd., priority 2016, dated 2020) come the findings set out here.

The nature of data set [1]: Determination of APTT value in cynomolgus monkeys. It is filed as in vivo. The settings on record: cynomolgus monkey, individual animals; for APTT (sec) 1 hour / APTT (sec) 2 hours / APTT (sec) 4 hours / APTT (sec) 8 hours / APTT (sec) 12 hours: 15.0 mg/kg intragastric; for APTT (sec) 1 hour: 1 hour after administration; for APTT (sec) 2 hours: 2 hours after administration; for APTT (sec) 4 hours: 4 hours after administration; for APTT (sec) 8 hours: 8 hours after administration; for APTT (sec) 12 hours: 12 hours after administration; for APTT (sec) Before Administration: baseline before 15.0 mg/kg intragastric dose. Here is the method:
(§1) Test Example 4: Determination of APTT Value and Pharmacokinetic Assay in Cynomolgus Monkey
(§2) Six male cynomolgus monkeys (101, 102, 103, 201, 202 and 203) were purchased from Guangxi Xiongsen Primate Experimental Animal Breeding Development Co., Ltd.
(§3) Compounds of Example 5 and Example 108.
(§4) 4. Preparation of the Test Compounds
(§5) A certain amount of the test compound was weighed, and added with 2% by volume of DMSO, 78% by volume of PEG400 and 20% CMC-Na (0.5%) to prepare a 3.0 mg/mL colorless, clear and transparent solution.
(§6) After an overnight fast, cynomolgus monkeys were intragastrically administered at a dose of 15.0 mg/kg and an administration volume of 5.0 mL/kg.
6. Test Protocol for Determination of APTT Value in Cynomolgus Monkeys
6.1 Experimental Materials
Reagents: APTT reagent (Activated partial thromboplastin time assay kit, SIEMENS, Art. No. B4218-1), PEG-400 and CMC-Na;
Instrument: Coagulation instrument (SYSMEX, CA-500).
6.2 Collection and Processing of APTT Plasma Sample
Blood was taken before administration and at 1 hour, 2 hours, 4 hours, 8 hours and 12 hours after administration. About 1.8 mL of blood was taken through femoral vein puncture in each animal for each time. Anticoagulated sodium citrate was added. After the blood sample was collected, it was placed in a pre-labeled centrifuge tube, and the plasma was separated by centrifugation (centrifugation conditions: 3500 rpm, 10 minutes, 2-8° C.). The plasma was stored in a −80° C. refrigerator for APTT assay.
6.3 APTT Assay Results in Cynomolgus Monkeys

The nature of data set [2]: Pharmacokinetics assay in rats after intragastrical administration. It is filed as in vivo, Sprague-Dawley (SD) rats. The settings on record: both sexes, Sprague-Dawley, rat, plasma, po, SD rats, intragastric, 2 mg/kg; for Vd/F: read-out: Apparent Distribution Volume Vz/F; for AUC: read-out: Area Under Curve AUC; for CL/F: read-out: Clearance CLz/F; for half-life: read-out: Half-Life T½ (converted); for MRT: read-out: Mean Residence Time MRT; for Cmax: read-out: Plasma Concentration Cmax. The source says: Test Example 3. Pharmacokinetics Assay of the Compounds of the Present Invention
Rats were used as test animals. […] The pharmacokinetic behavior of the compounds of the present invention was studied and evaluated in rats.
56 healthy adult Sprague-Dawley (SD) rats, half male and half female, were purchased from SINO-BRITSH SIPPR/BK LAB. ANIMAL LTD., CO, with License No.: SCXK (Shanghai) 2008-0016.
2.3 Preparation of the Test Compounds
A certain amount of the test compound was weighed, and added with 5% by volume of DMSO, 5% by volume of Tween 80 and 90% normal saline to prepare a 0.2 mg/mL colorless, clear and transparent solution.
After an overnight fast, SD rats were intragastrically administered at a dose of 2.0 mg/kg and an administration volume of 10.0 mL/kg.
Blood (0.2 mL) was taken from the orbital sinus before administration and at 0.5, 1.0, 2.0, 4.0, 6.0, 8.0, 11.0 and 24.0 hours after administration. The samples were stored in heparin anticoagulation tubes, and centrifuged for 10 minutes at 3500 rpm at 4° C. to separate the blood plasma. The plasma samples were stored at −20° C. The rats were fed 2 hours after administration.
The content of the test compound in the plasma of rats after intragastric administration of different concentrations of the drug was determined: 25 μL of rat plasma at each time after administration was taken and added with 30 μL (100 ng/mL) of the internal standard solution of camptothecin and 200 μL of acetonitrile, shaken vertically for 5 minutes, and centrifuged for 10 minutes (4000 rpm). 3.0 μL of the supernatant was taken from the plasma samples for LC/MS/MS analysis.
4. Results of Pharmacokinetic Parameters
Pharmacokinetic parameters of the compounds of the present invention in rats are shown below.

Data set [3] is described as follows: Pharmacokinetics assay in cynomolgus monkeys. The data set is classed as in vivo. The settings on record: male, cynomolgus monkey, plasma, po, intragastric, 15 mg/kg; for Vd/F: read-out: Apparent Distribution Volume Vz/F; for AUC: read-out: Area Under Curve AUC; for CL/F: read-out: Clearance CLz/F; for half-life: read-out: Half-Life T½ (converted); for MRT: read-out: Mean Residence Time MRT; for Cmax: read-out: Plasma Concentration Cmax.
Excerpt: as §1
Cynomolgus monkeys were used as test animals. […] The pharmacokinetic behavior of the compounds of the present invention was studied and evaluated in the cynomolgus monkeys.
as §2, §3, §4, §5, §6
7. Test Protocol of Pharmacokinetics Assay in Cynomolgus Monkeys
1.0 mL of blood was taken from the forelimb vein before administration and at 0.25, 0.5, 1, 2, 4, 6, 8, 12 and 24 hours after administration. The samples were stored in heparin anticoagulation tubes, and centrifuged for 10 minutes at 3500 rpm to separate the blood plasma. The plasma samples were stored at −80° C. The […] were fed 2 hours after administration.
The content of the test compound in the plasma of cynomolgus monkeys after intragastric administration of different concentrations of the drug was determined: 25 μL of cynomolgus monkey plasma at each time after administration was taken and added with 30 μL (100 ng/mL) of the internal standard solution of camptothecin and 225 μL of acetonitrile, shaken vertically for 5 minutes, and centrifuged for 10 minutes (4000 rpm). 1.0 μL of the supernatant was taken from the plasma samples for LC/MS/MS analysis.
7.2. Results of Pharmacokinetic Parameters in Cynomolgus Monkeys
Pharmacokinetic parameters of the compounds of the present invention in cynomolgus monkeys are shown below.

Data set [4] relates to human blood. In words: In vitro anticoagulant effect on human blood (APTT, CT2). The settings on record: for CT2, concentration doubling APTT: concentration corresponding to 2 times the APTT of the blank control, human plasma. The method in brief:
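Citrated human plasma (3.8% sodium citrate, 1:9) spiked with compound serially diluted in 100% DMSO (0.3–3000 μM dilution series; DMSO blank) and APTT measured on a coagulation analyser. CT2 is the compound concentration doubling blank APTT, from curve fitting.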

For data set [5], the target named is Coagulation Factor XIa protease (Homo sapiens (Human), UniProt P03951). In words: Inhibition of Factor XIa detected by absorption photometry. Particulars: absorbance at 405 nm, 10 minutes at 37° C. It is filed as biochemical. A digest of the protocol:
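Compounds were serially diluted in 100% DMSO (200-0.002 μM dilution series) before addition to the wells. FXIa enzyme solution at 2.5 μg/ml and substrate solution at 2 mM were then added, both stock concentrations. After 10 min at 37° C., absorbance was read at 405 nm.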

Values joined by “and” are separate entries in the source; they are usually repeats but may differ in a detail not shown here. Equal values may be shown once.

Sequence of Coagulation Factor XIa protease (P03951 388-625): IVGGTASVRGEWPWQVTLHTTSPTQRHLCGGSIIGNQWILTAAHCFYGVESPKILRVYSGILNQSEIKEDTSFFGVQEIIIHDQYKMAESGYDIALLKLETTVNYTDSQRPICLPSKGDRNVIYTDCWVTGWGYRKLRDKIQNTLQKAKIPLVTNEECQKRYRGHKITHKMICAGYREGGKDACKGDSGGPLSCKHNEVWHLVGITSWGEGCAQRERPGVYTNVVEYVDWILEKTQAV
Sequence of Coagulation Factor XIa protease (P03951 19-387 partner): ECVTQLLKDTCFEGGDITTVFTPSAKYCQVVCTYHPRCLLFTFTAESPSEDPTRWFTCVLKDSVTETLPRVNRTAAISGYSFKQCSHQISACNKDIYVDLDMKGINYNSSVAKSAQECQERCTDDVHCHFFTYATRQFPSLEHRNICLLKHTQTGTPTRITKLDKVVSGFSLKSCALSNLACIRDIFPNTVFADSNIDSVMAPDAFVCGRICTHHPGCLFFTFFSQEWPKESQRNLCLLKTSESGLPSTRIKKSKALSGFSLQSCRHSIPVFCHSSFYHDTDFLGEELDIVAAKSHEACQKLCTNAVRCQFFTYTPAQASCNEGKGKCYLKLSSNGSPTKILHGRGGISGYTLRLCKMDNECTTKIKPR

Turning to `COc1cn([C@@H](Cc2ccccc2)C(=O)Nc2ccc(C(=O)O)cc2)c(=O)cc1-c1cc(Cl)ccc1C(C)=O` [Example 5, (S)-4-(2-(4-(2-acetyl-5-chlorophenyl)-5-methoxy-2-oxopyridin-1(2H)-yl)-3-phenylpropanamido)benzoic acid], in data set [1], the “APTT (sec) 1 hour” value is 36.8 s and 25.9 s; the “APTT (sec) 2 hours” value is 33.3 s and 31.4 s and 27.2 s; the “APTT (sec) 4 hours” value is 28.3 s and 26.1 s and 22.2 s; the “APTT (sec) 8 hours” value was 27.3 s and 32.5 s and 24.8 s. For the same compound, in data set [1], the “APTT (sec) 12 hours” value was 28.6 s and 23.8 s and 23.9 s; the “APTT (sec) Before Administration” value was 17.2 s and 17.3 s and 19.1 s. Further, in data set [2], the Vd/F was 4.98 ± 0.291 L/kg; the AUC (in general, the area under the concentration-time curve, a measure of exposure) turned out to be 518 ± 63 ng·h/mL; the CL/F was 65.1 ± 8.1 mL/min/kg; the half-life (in general, the time needed for the level to fall by half in the phase considered) is 0.89 ± 0.08 h. Besides, in data set [2], the mean residence time MRT (usually a mean duration of stay, worked out from the concentration-time curve) stood at 6.64 ± 1.77 h and the Cmax turned out to be 244 ± 77 ng/mL. For the same compound, in data set [3], the Vd/F stood at 30.4 ± 12.6 L/kg, the area under the curve (AUC) amounted to 4950 ± 2880 ng·h/mL, the CL/F was 62 ± 32 mL/min/kg and the half-life was 5.86 ± 1.1 h. In data set [3], the mean residence time MRT turned out to be 9.63 ± 0.78 h and the Cmax came out at 688 ± 560 ng/mL. Moreover, the “CT2, concentration doubling APTT” value in data set [4] (Table 2) came to 2.0 µM.

Take `CCC(=O)c1ccc(Cl)cc1-c1cc(=O)n([C@@H](CCOC(C)(C)C)C(=O)Nc2ccc(C(=O)O)cc2)cc1OC` [Example 108, (S)-4-(4-(tert-butoxy)-2-(4-(5-chloro-2-propionylphenyl)-5-methoxy-2-oxopyridin-1(2H)-yl)butanamido)benzoic acid]: in data set [1], the “APTT (sec) 1 hour” value was 26.3 s and 31.2 s and 31.9 s; the “APTT (sec) 2 hours” value is 27.5 s and 27.1 s and 28.5 s; the “APTT (sec) 4 hours” value was 28.7 s and 24.1 s and 28.6 s; the “APTT (sec) 8 hours” value was 26.9 s and 20.3 s and 26.3 s. In data set [1], the “APTT (sec) 12 hours” value was 27.3 s and 19 s and 21.5 s; the “APTT (sec) Before Administration” value was 17.5 s and 18.5 s and 17.6 s. Further, in data set [2], the Vd/F turned out to be 44.4 ± 3.45 L/kg, the AUC was 452 ± 44 ng·h/mL, the CL/F was 74.3 ± 6.9 mL/min/kg and the half-life is 6.98 ± 1.22 h. Moreover, in data set [2], the MRT was determined as 7.33 ± 0.48 h and the Cmax turned out to be 105 ± 23 ng/mL. Besides, in data set [3], the Vd/F was found to be 59.1 ± 26.2 L/kg, the AUC stood at 2700 ± 1340 ng·h/mL, the CL/F came to 120 ± 83 mL/min/kg and the half-life was 6.32 ± 1.47 h. In data set [3], the MRT was 8.81 ± 3.65 h and the Cmax came out at 295 ± 102 ng/mL. Besides, the “CT2, concentration doubling APTT” value in data set [4] (Table 2) is 1.4 µM.

In the case of `COc1cn([C@@H](Cc2ccccc2)C(=O)Nc2ccc(C(N)=O)cc2)c(=O)cc1-c1cc(Cl)ccc1C(C)=O` [Example 11, (S)-4-(2-(4-(2-acetyl-5-chlorophenyl)-5-methoxy-2-oxopyridin-1(2H)-yl)-3-phenylpropanamido)benzamide], in data set [2], the Vd/F stood at 40.2 ± 18.6 L/kg, the area under the curve (AUC) came to 125 ± 50 ng·h/mL, the CL/F stood at 299 ± 111 mL/min/kg and the half-life was 1.53 ± 0.33 h. Besides, in data set [2], the MRT came to 2.12 ± 0.17 h and the Cmax is 73.1 ± 32.3 ng/mL. In addition, the “CT2, concentration doubling APTT” value in data set [4] (Table 2) turned out to be 4.2 µM. The IC50 (in general, the concentration needed to halve the response being measured) in data set [5] amounted to 13 nM.

Consider `CCC(=O)c1ccc(Cl)cc1-c1cc(=O)n([C@@H](CCOC(C)(C)C)C(=O)Nc2ccc3nccnc3c2)cc1OC` [Example 114, (S)-4-(tert-butoxy)-2-(4-(5-chloro-2-propionylphenyl)-5-methoxy-2-oxopyridin-1(2H)-yl)-N-(quinoxalin-6-yl)butanamide], for which, in data set [2], the Vd/F came to 24 ± 11.1 L/kg, the exposure (AUC) came out at 168 ± 102 ng·h/mL, the CL/F amounted to 278 ± 182 mL/min/kg and the half-life is 1.11 ± 0.25 h. Further, in data set [2], the MRT is 1.67 ± 0.23 h and the Cmax was 91.2 ± 51.3 ng/mL. For the same compound, the “CT2, concentration doubling APTT” value in data set [4] (Table 2) came out at 3.6 µM. Besides, the “CT2, concentration doubling APTT” value in data set [4] (Table 3 comparison) stood at 2.9 µM. Further, the “CT2 value ratio, Example 114 versus comparative Example 2” value in data set [4] (human blood, from Table 3) was determined as 4.5 times. In data set [5], this compound gave a 50% inhibitory concentration (IC50) of 27 nM.
